In patent publication US20020147136A1, “Compounds for targeting endothelial cells, compositions containing the same and methods for their use” (priority 2000, published 2002):
Residues, ends and D or L forms follow the SMILES beside them. No end group written: not given here.

Tests used:
Neuropilin-1/Fc = assay: Fluorescence polarization binding to NP-1/Fc; conditions: for binding to NP-1/Fc by FP: Oregon Green-labeled ligand
Description: The ability of various compositions comprising TKPPR monomers or multimers to bind to NP-1/Fc and KDR-Fc was evaluated using FP. The binding studies of various Oregon Green (OG)-labeled compounds comprising TKPPR monomers or multimers and related compounds with Neuropilin-1/Fc, and KDR-Fc (both from R&D Systems), were carried out at 37° C. in D-PBS buffer (pH 7.4). FP values (mP) for each substrate was measured by titrating the ligand (5-20 nM) with receptor protein using a Jolley Research and Consulting FPM-1 fluorescence Polarization analyzer. In each of these experiments the observed polarization values were plotted against receptor concentration. The mP values for 100% binding of tracer labeled ligand to receptor protein was calculated using the software provided by the vendor.

HAEC = assay: Inhibition of TKPPR-bubble binding to HAEC in static culture by competing agents; assay type: cell-based, human; conditions: for half-maximal inhibition of bubble binding / IC50 / Bubbles Bound: 5% TKPPR bubbles; for IC50: read-out: half-maximal inhibition of bubble binding; for inhibition of bubble binding to HAEC: Example 12; for ability to block binding of BRU-114 microbubbles to HAEC: up to 200 microM
Description: Vials of the compositions of example 5 and of example 6 may be reconstituted with 5 mL of sterile saline, injected using a 20-guage 1.5 inch needle. Bubbles may be then formed within the vials by shaking by hand vigorously for 30 seconds. 1 to 5 mL of the bubble formulation may be removed from each vial and diluted with 3 volumes of D-PBS (without calcium or magnesium) within 1 hour of use.
Chamber slides containing confluent HAEC may be drained of culture medium, which was immediately replaced with one of the final bubble solutions prepared above. The wells may be slightly overfilled such that the liquid meniscus protrudes slightly above the plastic well-forming scaffold of the slide. Bubble solutions may be only added to alternate wells to minimize liquid cross-talk. The wells may be sealed with a piece of Parafilm and the slide incubated 20 minutes, inverted (according to Klibanov A. L., Advanced drug Delivery Reviews, 37, 1999, 139-157) to allow the bubbles to rise and make contact with the cells, after which the solutions may be poured off. Weakly associated bubbles may be removed by washing each well twice with 0.5 mL of D-PBS, swirling gently each time before pouring off. Additional D-PBS (0.5 mL) may be added to wells after the washes to keep the cells submerged until microscopic evaluation.
Composition I of Example 5 was repeated exactly as described except that 0.5 mg DPPE-GTKPPR was added (instead of 2.5 mg) yielding compositions with 1% DPPE-GTKPPR. Vials of this composition as well as that of composition I ofExample 5 (5% DPPE-GTKPPR) were reconstituted with 5 mL of sterile saline, injected using a 20-guage 1.5 inch needle. Bubbles were then formed within the vials by shaking by hand vigorously for 30 seconds. 1 to 5 mL of the bubble formulation was removed from each vial and diluted with 3 volumes of D-PBS (without calcium or magnesium) within 1 hour of use.
Chamber slides containing confluent HAEC were drained of culture medium, which was immediately replaced with one of the final bubble solutions prepared above. The wells were slightly overfilled such that the liquid meniscus protruded slightly above the plastic well-forming scaffold of the slide. Bubble solutions were only added to alternate wells to minimize liquid cross-talk. The wells were sealed with a piece of Parafilm and the slide was incubated 20 minutes, inverted to allow the bubbles to rise and make contact with the cells, after which the solutions were poured off. Weakly associated bubbles were removed by washing each well twice with 0.5 mL of D-PBS, swirling gently each time pouring off. Additional D-PBS (0.5 mL) was added to wells after the washes to keep the cells submerged until microscopic evaluation.
Assays were performed as described for Example 7 using microbubble compositions containing 2% BRU-114 (Composition I of Example 5) as a % of total phospholipid in the composition.
Compositions were reconstituted and assays were performed as described in Example 7 using microbubble compositions containing 1% BRU-114 (Composition I of Example 5) as a % of total phospholipid in the composition.
Assays were performed as described for Example 7 using microbubble compositions containing 2% BRU-114 (as a % of total phospholipid in the composition).

NP-1/Fc = assay: Inhibition of 125I-VEGF165 binding to NP-1/Fc
Description: The ability of various compositions comprising TKPPR monomers or multimers to inhibit ^125I-VEGF binding to NP-1 was evaluated using NP-1/Fc. Competitive binding assays with microtiter plates coated with NP-1/Fc (R&D sytems) were performed using ^125I-VEGF165 as radioligand (Amersham Pharmacia Biotech Cat. No. IM274, Specific Activity: 1000-2500 Ci/mmol). […] Plates (Nunc MaxiSorp white opaque Microtiter plate [C-bottom, 437796]) were coated by incubating the wells with 75 µl of a solution containing 3 μlg/mL NP-1/Fc in D-PBS/0.1% NaAzide overnight at 4° C. after covering with sealing tape (Dynex, VWR Cat. No. 62402-931). […] All points were derived from triplicate wells, and for each set of replicates in NP-1/Fc-coated wells, a companion set in the absence of the receptor was included. For competitive binding, a series of unlabelled competitor concentrations were prepared in a 250 pM solution of ^1251-VEGF165 in assay buffer Solutions were added to 1.2 ml polypropylene tubes conforming to the microtiter format (Costar Cat. No. 29442-602), and transferred from these tubes to microtiter wells, without further dilution, using a multichannel pipettor. After addition of the appropriate solutions, microtiter plates were incubated at 4° C. for 2 hours. […] The plates were blotted dry and 25 μl deionized water and 100 μl scintillation fluid (Optiphase SuperMix, Wallac) were added to each well. Plates were agitated using a Plate Shaker (Hyperion, Cat. No. 4030-100F) for 3-5 minutes and were then counted using a Microplate Scintillation Counter (Wallac Microbeta Trilux) A set of serially diluted 125I-VEGF165 standard wells ranging from 200 to 0.04 pM were included with each experiment to aid in quantification of the amount of radiolabel bound.

[1] = competitor 100 ng/ml, 2% BRU-114 bubbles
[2] = competitor 200 ng/ml, 2% BRU-114 bubbles
[3] = competitor 50 microM, 2% BRU-114 bubbles
[4] = competitor 100 microM, 2% BRU-114 bubbles
[5] = competitor 200 microM, 2% BRU-114 bubbles

Thr-Lys-Pro-Pro-Arg-Lys(Arg-Pro-Pro-Lys-Thr)-Gly-TTDA-OG [BRU-337]
binding characteristics compared to BRU-326 (Neuropilin-1/Fc): did not exhibit the same binding characteristics

TKPPR-K(RPPKT)-K[K(RPPKT)TKPPR]-G-Z-OG [BRU-346]
binding characteristics compared to BRU-326 (Neuropilin-1/Fc): did not exhibit the same binding characteristics
binding to NP-1/Fc by FP (Neuropilin-1/Fc): negative

KDR/Fc: soluble human KDR/Fc chimera (R&D Sytems Inc.)
half-maximal inhibition of bubble binding (HAEC): about 450 ng/mL
IC50 (HAEC): ~1.4 nM
inhibition of bubble binding to HAEC (HAEC): inhibit potently
Bubbles Bound (HAEC; KDR/Fc added 125 ng/ml): 1030 ± 12
Bubbles Bound (HAEC; KDR/Fc added 250 ng/ml): 786 ± 76
Bubbles Bound (HAEC; KDR/Fc added 500 ng/ml): 342 ± 78
Bubbles Bound (HAEC; KDR/Fc added 1000 ng/ml): 75 ± 5
Bubbles Bound (HAEC; KDR/Fc added 2500 ng/ml): 84 ± 3

VEGF165: vascular endothelial growth factor isoform containing 165 amino acids
ability to inhibit binding of BRU-114 microbubbles to HAEC (HAEC; 2% BRU-114 bubbles): potently blocked
half-maximal inhibition of bubble binding (HAEC): about 12.5 ng/mL
IC50 (HAEC): ~0.3 nM
inhibition of bubble binding to HAEC (HAEC): potently may inhibit
Bubbles Bound (HAEC; VEGF added 6.25 ng/ml): 1184 ± 172
Bubbles Bound (HAEC; VEGF added 12.5 ng/ml): 599 ± 6
Bubbles Bound (HAEC; VEGF added 25 ng/ml): 342 ± 22
Bubbles Bound (HAEC; VEGF added 50 ng/ml): 226 ± 39
Bubbles Bound (HAEC; VEGF added 75 ng/ml): 190 ± 45
Bubbles Bound (average of duplicate) (HAEC; competitor 25 ng/ml, 2% BRU-114 bubbles): 144
Bubbles Bound (average of duplicate) (HAEC; [1]): 94
Bubbles Bound (average of duplicate) (HAEC; [2]): 70

BRU-170: TPATSVRG (negative control) [reference compound]
inhibition of 125I-VEGF165 binding to NP-1 Fc (NP-1/Fc; at 1 μM): no inhibition

CC(O)C(NC(=O)C(N)CS)C(=O)NC(CCCCN)C(=O)N1CCCC1C(=O)N1CCCC1C(=O)NC(CCCNC(=N)N)C(=O)NC(CS)C(=O)O (stereo not drawn) [BRU-305] (H-CTKPPRC-OH; configuration not given here)
ability to block binding of BRU-114 microbubbles to HAEC (HAEC; 2% BRU-114 bubbles): no ability to block
Bubbles Bound % of control binding (HAEC; [3]): 97%
Bubbles Bound % of control binding (HAEC; [4]): 78%
Bubbles Bound % of control binding (HAEC; [5]): 88%

BRU-317: TKPPR dimer labeled with Oregon Green (also: dimer, labeled with Oregon Green)
binding to NP-1/Fc by FP (Neuropilin-1/Fc): barely detectable
fold more potent than the monomer (NP-1/Fc): 10 to 14 fold

C[C@@H](O)[C@H](N)C(=O)N[C@@H](CCCCN)C(=O)N1CCC[C@H]1C(=O)N[C@@H](CCCNC(=N)N)C(=O)O [TKPR, L-threonyl-L-lysyl-L-prolyl-L-Arginine, reference compound] (H-TKPR-OH)
potency at inhibiting BRU-114 microbubble binding relative to TKPPR (BRU-95) (HAEC; 1% BRU-114 bubbles): less potent than TKPPR
inhibition of TKPPR-bubble binding to HAEC (HAEC; Example 7, compared with free TKPPR): less effectively than free TKPPR
Bubbles Bound (average of duplicate) (HAEC; competitor 5 microM, 1% BRU-114 bubbles): 1152
Bubbles Bound (average of duplicate) (HAEC; competitor 10 microM, 1% BRU-114 bubbles): 976
Bubbles Bound (average of duplicate) (HAEC; competitor 25 microM, 1% BRU-114 bubbles): 1171
Bubbles Bound (average of duplicate) (HAEC; competitor 50 microM, 1% BRU-114 bubbles): 904
Bubbles Bound (average of duplicate) (HAEC; competitor 100 microM, 1% BRU-114 bubbles): 556
fold less potent a binding inhibitor than TKPPR (NP-1/Fc): 5 to 6 fold
IC50 (NP-1/Fc; 250 pM 125I-VEGF165, 4° C., 2 hours): 280000 nM

CC(O)C1/N=C(/O)C(N)CSSCC(C(=O)O)/N=C(/O)C(CCCNC(=N)N)/N=C(\O)C2CCCN2C(=O)C2CCCN2C(=O)C(CCCCN)/N=C\1O (stereo not drawn) [BRU-306]
ability to block binding of BRU-114 microbubbles to HAEC (HAEC; 2% BRU-114 bubbles): no ability to block
Bubbles Bound % of control binding (HAEC; [3]): 97%
Bubbles Bound % of control binding (HAEC; [4]): 71%
Bubbles Bound % of control binding (HAEC; [5]): 99%

B1: VEGF121: VEGF isoform of 121 amino acids, lacks the heparin-binding domain (protein)
chain: APMAEGGGQNHHEVVKFMDVYQRSYCHPIETLVDIFQEYPDEIEYIFKPSCVPLMRCGGCCNDEGLECVPTEESNITMQIMRIKPHQGQHIGEMSFLQHNKCECRPKKDRARQEKCDKPRR
effect on BRU-326 binding to NP-1 (Neuropilin-1/Fc; at up to 250nM): no effect
ability to inhibit binding of BRU-114 microbubbles to HAEC (HAEC; 2% BRU-114 bubbles): little if any ability to inhibit
Bubbles Bound (average of duplicate) (HAEC; [1]): 878
Bubbles Bound (average of duplicate) (HAEC; [2]): 849
Bubbles Bound (average of duplicate) (HAEC; competitor 400 ng/ml, 2% BRU-114 bubbles): 778
